# Measured values published in patent US6075009A, “Neuropeptide Y analogues, compositions and methods of lowering blood pressure” (East Carolina University, priority 1995, dated 2000).
# Square brackets hold non-standard residues; d marks the D form. Ends that are not written are not given here.
# Test system: mean arterial pressure and heart rate
# Assay: In vivo blood pressure and heart rate after intravenous dosing in normotensive rats
# Set-up: species or system Sprague-Dawley rats
# Method: Male Sprague-Dawley rats obtained from Charles River Laboratories, Wilmington, Mass., and weighing 276-300 g, were group housed at 22° C. and kept on 12 hour light/dark cycle. Food and water were provided ad lib. Animals were anesthetized with sodium pentobarbital (65 mg/kg) and under sterile conditions a one-inch incision was made in the fold of the left leg to expose the femoral blood vessels. Two lengths of PE-50 tubing filled with 10% heparin were inserted into the left femoral artery and left femoral vein for measurement of blood pressure and for drug delivery, respectively. The tubings were tunneled under the skin and exposed through the mid-scapular region. Animals were allowed at least 24 hours recovery prior to experiments. A force transducer (Spectramed Model P23XL, Grass Instruments, Quincy, Mass., USA), and tachograph (Model 7P44D, Grass Instruments) was used for recording of systolic and diastolic pressures and heart rate from the femoral artery catheter. Patency of catheters was verified by flushing with either saline or 10% heparin. A dose of either 30, 100, 500, 800 or 1000 nM/kg ([…]) of NPY27-36 (D-Tyr^27,36, D-Thr^32) (prepared as described in Example 1 above), or saline was delivered to the animal via the catheter in the left femoral vein. Changes in systolic and diastolic pressures and heart rater were recorded from the catheter in the left femoral artery over a 10 minute time interval.
# [1] = i.v., 30-1000 nM/kg, normotensive Sprague-Dawley rats, recorded over 10 min
substance,measurement,setting,value
"D-Tyr-Ile-Asn-Leu-Ile-D-Thr-Arg-Gln-Arg-D-Tyr-NH2 ([dY]INLI[dT]RQR[dY]-NH2; N-terminus assumed; SMILES CC[C@H](C)[C@H](NC(=O)[C@H](N)Cc1ccc(O)cc1)C(=O)N[C@@H](CC(N)=O)C(=O)N[C@@H](CC(C)C)C(=O)N[C@H](C(=O)N[C@@H](C(=O)N[C@@H](CCCNC(=N)N)C(=O)N[C@@H](CCC(N)=O)C(=O)N[C@@H](CCCNC(=N)N)C(=O)N[C@H](Cc1ccc(O)cc1)C(N)=O)[C@H](C)O)[C@@H](C)CC) [NPY27-36 (D-Tyr^27,36, D-Thr^32)]",changes in pressure and heart rate vs saline treatment,i.v. doses of 30 and 100 nM/kg,failed to produce changes that were significantly different from saline treatment
same,mean arterial pressure vs saline-treated controls,"i.v. doses of 500, 800 and 1000 nM/kg",significantly different decreases in mean arterial pressure
same,heart rate vs saline controls,i.v. doses of 500 and 1000 nM/kg,significantly different increases in heart rate
same,"heart rate, dose-response",[1],increase in heart rate
same,"mean arterial pressure, dose-response",[1],dose-dependent decrease in mean arterial pressure
